Measurements from patent publication US20100048511A1, “COMPLEX FORMULATION FOR PREVENTING OR TREATING OSTEOPOROSIS WHICH COMPRISES SOLID DISPERSION OF VITAMIN D OR ITS DERIVATIVE AND BISPHOSPHONATE” (priority 2006, published 2010).

Columns and labels:
[1] = Stability test of the solid dispersion comprising vitamin D (cholecalciferol content by HPLC, 60° C. dried oven); format: physicochemical
Description: The time-dependent change of the cholecalciferol content of each test material was analyzed using the solid dispersions prepared in Comparative Example 2 (0.07 mg of cholecalciferol) and Examples 1 to 4 as test materials, during the period of incubating the test materials in a 60° C. dried oven.
Each test material was pretreated as follows, before the analysis of cholecalciferol.
Each test material was taken in the amount corresponding to about 28 mg cholecalciferol and placed in a 50 ml flask, 5 ml of 0.01 M HCl was added thereto, the mixture was ultrasonicated for 3 minutes, and the flask was filled with ethanol. 15 ml of the resulting solution was mixed with 5 ml of purified water and 20 ml of n-hexane for 5 minutes, and centrifuged at 2000 rpm for 5 minutes. 10 ml of the supernatant was harvested, evaporated under a reduced pressure, and 2 ml of n-hexane was added thereto. The cholecalciferol content of each test material was analyzed by HPLC under the following conditions. The results are shown in Table 7. • Column: silica column (5 μm, 4.6 mm×250 mm) • Mobile phase: (chloroform: n-hexane: tetrahydrofuran=650:350:10 (v/v)) • Injecting volume: 100 μl • Flow rate: 1.0 ml/min • Detector: ultraviolet spectrophotometer (wavelength: 254 nm; L-7400, HITACHI, Japan)

[2] = preserved at 40° C. for 4 days; cited from earlier work

C=C1CC[C@H](O)C/C1=C/C=C1\CCC[C@]2(C)[C@@H]([C@H](C)CCCC(C)C)CC[C@@H]12 [Comparative Example 2, cholecalciferol]
cholecalciferol content ([1]; 2 weeks): 3.3% | cholecalciferol content ([1]; 4 weeks): 0.0% | cholecalciferol content ([1]; incubation time 0): 100%

C=C1CC[C@H](O)C/C1=C/C=C1\CCC[C@]2(C)[C@@H]([C@H](C)CCCC(C)C)CC[C@@H]12 [vitamin D3, cholecalciferol]
content of vitamin D3 in the formulation, of the original content [2]: about 86.3%
